Data as given in patent publication US20160257997A1, “METHODS FOR WHOLE-CELL ANALYSIS OF GRAM-POSITIVE BACTERIA” (AdvanDx, Inc., priority 2009, published 2016).

System: MecA mRNA
Test: PNA FISH of MecA mRNA in permeabilized S. aureus (Examples 1-3)
Assay type: cell-based

GCTATCGTGTCACAA (all peptide nucleic acid (PNA); fluorescein label, position not given here; listed as Staphylococcus aureus) [Probe 2, Flu-labeled PNA probe, methicillin-resistance]
fluorescent staining of bacteria (FITC filter) (MRSA 43300, oxacillin-induced, FIG. 1 Slides B-D, Probes 1-5 794 nM combined, Probe 2 750 nM, Probe 6 750 nM): Green fluorescent bacteria were observed | fluorescent staining of bacteria (FITC filter), competition control (MRSA 43300, Probe 2 300 nM in the presence of 16.6-fold excess (5000 nM) of biotin labeled Probe 7, FIG. 1 Slide E): No signal was observed
